Assay results published in patent US20240325371A1, “USE OF EZH2 INHIBITOR IN PREPARATION OF DRUG FOR TREATING T-CELL LYMPHOMA” (JIANGSU HENGRUI MEDICINE CO., LTD., priority 2021, published 2024).

Tested on: relapsed or refractory PTCL
Assay: Efficacy study of compound shown in Formula (I) in peripheral T-cell lymphoma patients
Type: in vivo, human
Procedure: ORR: Defined as the proportion of subjects with best efficacy of CR or PR from the start of the first dose to the occurrence of PD or the start of subsequent new anti-tumor treatment, whichever occurs first. • 1.1 Drugs: Compound (WO2017084494A) shown in Formula (1), strength: 50 mg/tablet, 200 mg/tablet. • 1.2 Methods of administration: 350 mg, twice a day, 28 days as a cycle. • 1.3 Inclusion criteria: Relapsed or refractory T lymphocytic lymphoma. A total of 24 patients with relapsed or refractory PTCL were enrolled in the 350 mg group, of whom 16 received chidamide, and all patients were analyzed for efficacy data based on indistinguishable prior treatment and prior chidamide treatment.

`CCc1c(N(CC)C2CCOCC2)cc2oc(CN3CCCCC3)cc2c1C(=O)NCc1c(C)cc(C)[nH]c1=O` [Formula (I)] gave an ORR (350 mg group having used chidamide, ES, AITL (n = 8)) of 62.5%, an ORR (350 mg group having used chidamide, ES, ALL (n = 14)) of 64.3% and an ORR (350 mg group having used chidamide, ES, PTCL-NOS (n = 6)) of 66.7%. For the same compound, the ORR (350 mg group having used chidamide, FAS, AITL (n = 10)) was 50.0%, the ORR (350 mg group having used chidamide, FAS, ALL (n = 16)) was 56.3% and the ORR (350 mg group having used chidamide, FAS, PTCL-NOS (n = 6)) was 66.7%. It also gave an ORR (350 mg twice a day, ES, AITL (n = 11)) of 72.7%, an ORR (350 mg twice a day, ES, ALL (n = 18)) of 66.7% and an ORR (350 mg twice a day, ES, PTCL-NOS (n = 7)) of 57.1%. It also gave an ORR (350 mg twice a day, FAS, AITL (n = 15)) of 53.3%, an ORR (350 mg twice a day, FAS, ALL (n = 24)) of 50% and an ORR (350 mg twice a day, FAS, PTCL-NOS (n = 9)) of 44.4%.
